Test results from US12703712B2, “Indenonaphthopyrans having trialkylsilyl and ethylenically unsaturated groups” (Transitions Optical, Ltd., priority 2021, dated 2026).

Experiment: Solubility evaluation in polymerizable polysiloxane-containing formulation
Assay type: physicochemical
Details: 0.06 g photochromic compound in 1.50 g polymerizable polysiloxane-containing formulation of Table 1; stirred 24 hours at room temperature; visual observation
Protocol: A polymerizable polysiloxane-containing formulation was prepared by mixing together the ingredients and in the amounts as tabulated in the following Table 1.
The photochromic compounds of Comparative Examples CE-1 and CE-2, and Examples 4 and 5, prepared as described in Part-1, were each added to a polymerizable polysiloxane-containing formulation according to Table 1, to form Polymerizable Photochromic Compositions A, B, C, and D, as summarized in the following Table 2. The Polymerizable Photochromic Compositions were each stirred for 24 hours at room temperature after which the solubility of the photochromic compounds was determined by visual observation.

| Compound | Observed Solubility |
| --- | --- |
| C=C(C)C(=O)OCCOCCOCCOc1ccc(C2(c3ccccc3)C=Cc3c4c(c5cc(N6CCCCC6)c(OC)cc5c3O2)-c2ccc(-c3ccccc3)cc2C4(CCC)CCC)cc1 (stereo not shown) [CE-1] | poor |
| C=C(C)C(=O)OCCOC(=O)CCC(=O)N1CCN(c2ccc(C3(c4ccccc4)C=Cc4c5c(c6cc(N7CCCCC7)c(OC)cc6c4O3)-c3ccccc3C5(C)C)cc2)CC1 (stereo not shown) [CE-2] | poor |
| C=C(C)C(=O)OCCOCCOCCOc1ccc(C2(c3ccccc3)C=Cc3c4c(c5cc(N6CCCCC6)c(OC)cc5c3O2)-c2ccc(-c3ccc([Si](C)(C)C)cc3)cc2C4(CCC)CCC)cc1 (stereo not shown) [Example 4, 6-methoxy-7-(piperidin-1-yl)-11-(4-trimethylsilylphenyl)-13,13-dipropyl-3-phenyl-3-(2-(2-(1-methacroylethoxy)ethoxy)ethoxy)phenyl-3H,13H-indeno[2′,3′: 3,4]naphtho[1,2-b]pyran] | excellent |
| C=C(C)C(=O)OCCOC(=O)CCC(=O)N1CCN(c2ccc(C3(c4ccccc4)C=Cc4c5c(c6cc(N7CCCCC7)c(OC)cc6c4O3)-c3ccc([Si](C)(C)C)cc3C5(C)C)cc2)CC1 (stereo not shown) [Example 5] | excellent |
